Like-named read-outs stand apart in the source and are kept apart here.
Tests used:
human AR [1] = molecular target: T1, human AR (Homo sapiens, UniProt P10275); assay: AR antagonism assay: inhibition of transcriptional activation of AR (Probasin-luc reporter, COS-1 cells); assay type: cell-based; settings: compound 10.0 μM, relative luciferase response: 100% for testosterone (no antiandrogenic effect), 0% for complete antagonism; for remaining activity at 10 µM: COS-1, 18 h, read-out: AR antagonism against 100 nM testosterone ± S.D.
T1 construct: expressed in transfected cells; host or cells: COS-1
T1 sequence (P10275 1-920): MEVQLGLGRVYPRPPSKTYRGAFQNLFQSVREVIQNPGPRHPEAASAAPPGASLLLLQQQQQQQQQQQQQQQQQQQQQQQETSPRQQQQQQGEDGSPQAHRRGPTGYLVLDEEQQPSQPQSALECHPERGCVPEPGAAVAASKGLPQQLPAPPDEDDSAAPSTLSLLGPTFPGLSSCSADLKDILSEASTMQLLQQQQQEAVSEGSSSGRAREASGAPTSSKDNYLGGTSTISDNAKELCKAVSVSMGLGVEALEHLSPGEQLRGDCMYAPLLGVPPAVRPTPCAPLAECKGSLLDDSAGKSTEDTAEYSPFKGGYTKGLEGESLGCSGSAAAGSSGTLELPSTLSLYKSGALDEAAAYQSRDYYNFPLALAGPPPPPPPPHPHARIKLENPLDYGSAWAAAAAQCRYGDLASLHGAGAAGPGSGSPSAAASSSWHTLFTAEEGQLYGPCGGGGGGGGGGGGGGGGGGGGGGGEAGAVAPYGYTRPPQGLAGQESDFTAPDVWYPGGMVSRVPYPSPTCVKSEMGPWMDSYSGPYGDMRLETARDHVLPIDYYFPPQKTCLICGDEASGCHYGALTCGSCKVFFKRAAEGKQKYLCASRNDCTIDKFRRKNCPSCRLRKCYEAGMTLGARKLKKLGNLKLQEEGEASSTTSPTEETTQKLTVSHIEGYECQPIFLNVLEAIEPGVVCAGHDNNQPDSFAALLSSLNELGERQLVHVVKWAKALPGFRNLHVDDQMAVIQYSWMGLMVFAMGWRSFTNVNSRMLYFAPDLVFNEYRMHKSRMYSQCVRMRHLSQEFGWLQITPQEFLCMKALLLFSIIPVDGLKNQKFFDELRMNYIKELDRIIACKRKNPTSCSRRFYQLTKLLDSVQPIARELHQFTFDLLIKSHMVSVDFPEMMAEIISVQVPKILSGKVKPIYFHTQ
Description: Determination of the Antiandrogen Activity.
Testosterone was bought from Sigma Chemical Co. (St. Louis, Mo.) and hydroxyflutamide from Chemos GmbH. One day before transfection, COS-1 cells (from ATCC) were seeded into 1 ml of DMEM (Dulbecco's modified Eagle medium, Gibco) with 10% dextran-charcoal-treated fetal bovine serum and 0.25% (vol/vol) Penicillin-Streptomycin (Euroclone) at a density of 70×10^3 cells/well. After medium change to DMEM 2.5% FBS, the cells were transfected for 24 hours with 10 ng/well of human AR expression vector pSG5-hAR, 100 ng/well of reporter plasmid Probasin-luc, and 10 ng/well of control plasmid pCMV-β-gal by using the TransIT method (Micrus Bio TransIT LT1, Transfection Reagent). After the transfection, the cells received treatment of test compounds giving final concentration of 10 μM for each compound. In the antagonist test the wells were also treated with 100 nM final concentration of testosterone. After 18 hours, the cells were washed, lysed and assayed for luciferase and normalization for β-galactosidase activities and protein concentrations. The cells were washed with 100 μl of cold phosphate buffered saline (PBS) and lysed with 35 μl 1× Reporter lysis Buffer (Promega) and frozen (−70° C.) for 30 minutes. Cell lysates were placed in 1.5-ml propylene tubes and centrifuged at 13200×g for 5 minutes at room temperature. For β-galactosidase assay 10 μl of supernatant from each cell extract was transferred to a 96-well plate (96 well Elisa Microplates, PS, Microcon) and incubated for 10 minutes at 37° C. with 65 μl of reaction mixture consisting 0.76 μl 100×Mg-buffer, 12.5 μl ONPG (4 mg/ml), and 54.3 μl of sodium-phosphate buffer (pH 7). The reaction was stopped with treatment of 125 μl Na2CO3. For luciferase assay 10 μl of the supernatant was transferred to a 96-well plate (Greiner Microlon lumitrac 200) and treated with 30 μl of luciferase assay substrate solution (Promega Luciferase Assay System E1501). For the study of protein concentrations 5 μl of the supernatant was transferred to a 96-well plate (Elisa Microplates, PS, Microcon) and mixed with 200 μl of Bio-rad protein assay reagent. The luciferase activities were measured with Thermo Luminoscan Ascent scanner and the protein concentrations and β-galactosidase activities with Thermo Labsystem Multiscan Ex scanner. Also blank and control samples were measured. During the maintenance, transfection, and treatment with tested compounds the cells were incubated in humidified atmosphere with 5% carbon dioxide at 37° C.

human AR [2] = molecular target: T1, human AR; assay: Competitive AR binding assay against [3H]-R1881 in transiently transfected COS-1 cells; settings: compound 13.4 μM, [3H]-R1881 1.34 nM, complete inhibition equals 100%; for inhibition at 13.4 µM: read-out: Inhibition of [3H]-R1881 binding at 1.34 nM ± S.D.
Description: Competitive AR Binding Assay.
AR binding was measured by a competitive assay against [^3H]-R1881 (PerkinElmer) in transiently transfected COS-1 cells. One day before transfection, COS-1 cells were seeded into 2 ml of DMEM (Dulbecco's modified Eagle medium, Gipco) with 10% dextran-charcoal-treated fetal bovine serum and 0.25% (vol/vol) Penicillin-Streptomysin (Euroclone) at a density of 140×10^3 cells/well. After medium change to DMEM 2.5% FBS, the cells were transfected for 24 hours with 10 ng/well of human AR expression vector pSG5 hAR by using the TransIT method (Micrus Bio TransIT LT1, Transfection Reagent). After 36 hours, the cells where treated with tested compounds using 10000 fold molarities compared to labelled R1881 (1.34 nM). After 2 hours of incubation at 37° C., the medium was removed. The cells were removed from the wells to 150 μl of 1× phosphate buffered saline (PBS), transferred to Eppendorf tubes and centrifuged at 4° C. using 4000×g for 5 min, and then washed twice with 150 μl of PBS. The cell pellets were dissolved to 50 μl of 0.5M NaOH and incubated for 15 min at 56° C., after which the samples (three replicates for each sample compound) were transferred to liquid twinkle tubes with 3 ml of OptiPhase HiSafe 3 twinkle solution (PerkinElmer) and radioactivity of AR-bound [^3H]-R1881 determined. The results were measured with LKB WALLAC 1214 racbeta equipment. The ability of test compounds to bind AR is reported as reduction in bound radioactivity obtained with 1.34 nM [^3H]-R1881.
The results (% inhibition) were calculated as: % inhibition=100−[100×(averagecompound/average[3H]-R1881)].

Fc1ccc(C2=NOC3CCCCC23)cc1C(F)(F)F (stereo not shown) [Example 35ab, 3-(4-Fluoro-3-trifluoromethyl-phenyl)-3a,4,5,6,7,7a-hexahydro-benzo-[d]-isoxazole]
remaining activity at 10 µM (human AR [1]): 53.4 ± 5.4%
inhibition at 13.4 µM (human AR [2]; Table 2): 88.5 ± 4.2%

O=[N+]([O-])c1ccc(C2=NOC3CCCCC23)cc1C(F)(F)F (stereo not shown) [Example 37ab, 3-(4-Nitro-3-trifluoromethyl-phenyl)-3a,4,5,6,7,7a-hexahydro-benzo-[d]-isoxazole]
remaining activity at 10 µM (human AR [1]): 10.6 ± 1.6%
inhibition at 13.4 µM (human AR [2]; Table 1): 93.5 ± 0.9%

O=[N+]([O-])c1ccc(C2=NOC3CCCCCC23)c(C(F)(F)F)c1 (stereo not shown) [Example 42a, 3-(4-Nitro-2-trifluoromethyl-phenyl)-4,5,6,7,8,8a-hexahydro-3aH-cyclohepta[d]isoxazole]
remaining activity at 10 µM (human AR [1]): 17.4 ± 1.5%
inhibition at 13.4 µM (human AR [2]; Table 2): 90.5 ± 3.1%
inhibition at 13.4 µM (human AR [2]; Table 3): 91.4 ± 3.8%

Fc1ccc(C2=NOC3CCCCCC23)c(C(F)(F)F)c1 (stereo not shown) [Example 40a, 3-(4-Fluoro-2-trifluoromethyl-phenyl)-4,5,6,7,8,8a-hexahydro-3aH-cyclohepta[d]isoxazole]
remaining activity at 10 µM (human AR [1]): 28.8 ± 2%
inhibition at 13.4 µM (human AR [2]; Table 2): 88.8 ± 3.1%

O=[N+]([O-])c1ccc(C2=NOC3CCCCCC23)cc1C(F)(F)F (stereo not shown) [Example 41ab, 3-(4-Nitro-3-trifluoromethyl-phenyl)-4,5,6,7,8,8a-hexahydro-3aH-cyclohepta[d]isoxazole]
remaining activity at 10 µM (human AR [1]): 10.1 ± 0.9%
inhibition at 13.4 µM (human AR [2]; Table 2): 97.8 ± 0.5%

N#Cc1cccc(C2=NOC3CCCCC23)c1C(F)(F)F (single isomer, unassigned) [Example 94b, 3-(3a,4,5,6,7,7a-Hexahydro-benzo[d]isoxazol-3-yl)-2-trifluoromethyl-benzonitrile]
AR antagonism against 100 nM testosterone ± S.D. (human AR [1]): 5.4 ± 1.7%
Inhibition of [3H]-R1881 binding at 1.34 nM ± S.D. (human AR [2]; Table 3): 97.6 ± 0.2%

Clc1ccc(C2=NOC3CCCCC23)cc1 (single isomer, unassigned) [Example 32a, 3-(4-Chloro-phenyl)-3a,4,5,6,7,7a-hexahydro-benzo[d]-isoxazole]
AR antagonism against 100 nM testosterone ± S.D. (human AR [1]): 40.9 ± 2.4%
Inhibition of [3H]-R1881 binding at 1.34 nM ± S.D. (human AR [2]; Table 1): 30.5 ± 5.4%

O=[N+]([O-])c1ccc(C2=NOC3CCCCCC23)c(C(F)(F)F)c1 (stereo not shown) [Example 42b, 3-(4-Nitro-2-trifluoromethyl-phenyl)-4,5,6,7,8,8a-hexahydro-3aH-cyclohepta[d]isoxazole]
AR antagonism against 100 nM testosterone ± S.D. (human AR [1]): 25.5 ± 1.5%
Inhibition of [3H]-R1881 binding at 1.34 nM ± S.D. (human AR [2]; Table 2): 89.5 ± 2.0%
Inhibition of [3H]-R1881 binding at 1.34 nM ± S.D. (human AR [2]; Table 3): 89.3 ± 4.8%

Fc1ccc(C2=NOC3CCCCC23)c(C(F)(F)F)c1 (stereo not shown) [Example 36b, 3-(4-Fluoro-2-trifluoromethyl-phenyl)-3a,4,5,6,7,7a-hexahydro-benzo[d]-isoxazole]
AR antagonism against 100 nM testosterone ± S.D. (human AR [1]): 30.0 ± 6.1%
Inhibition of [3H]-R1881 binding at 1.34 nM ± S.D. (human AR [2]; Table 2): 87.7 ± 3.0%

N#Cc1ccc(C2=NOC3CCCCC23)c(C(F)(F)F)c1 (stereo not shown) [Example 89b, 4-(3a,4,5,6,7,7a-Hexahydro-benzo[d]isoxazol-3-yl)-3-trifluoromethyl benzonitrile]
AR antagonism against 100 nM testosterone ± S.D. (human AR [1]): 20.3 ± 1.7%
Inhibition of [3H]-R1881 binding at 1.34 nM ± S.D. (human AR [2]; Table 2): 83.6 ± 0.9%

Oc1ccc(C2=NOC3CCCCC23)cc1 (stereo not shown) [Example 26b, 4-(3a,4,5,6,7,7a-Hexahydro-benzo[d]isoxazol-3-yl)-phenol]
AR antagonism against 100 nM testosterone ± S.D. (human AR [1]): 41.0 ± 1.6%

Oc1ccc(C2=NOC3CCCCC23)cc1 (stereo not shown) [Example 26a, 4-(3a,4,5,6,7,7a-Hexahydro-benzo[d]isoxazol-3-yl)-phenol]
remaining activity at 10 µM (human AR [1]): 25.7 ± 5.5%

O=[N+]([O-])c1ccc(C2=NOC3CCCCC23)cc1 (stereo not shown) [Example 34ab, 3-(4-Nitro-phenyl)-3a,4,5,6,7,7a-hexahydro-benzo[d]-isoxazole]
remaining activity at 10 µM (human AR [1]): 48 ± 6.7%

COc1ccccc1C1=NOC2CCCCC12 (stereo not shown) [Example 23ab, 3-(2-Methoxy-phenyl)-3a,4,5,6,7,7a-hexahydro-benzo[d]isoxazole]
remaining activity at 10 µM (human AR [1]): 40.9 ± 2.4%

O=[N+]([O-])c1ccc(C2=NOC3CCCCC23)cc1 (single isomer, unassigned) [Example 34a, 3-(4-Nitro-phenyl)-3a,4,5,6,7,7a-hexahydro-benzo[d]-isoxazole]
Inhibition of [3H]-R1881 binding at 1.34 nM ± S.D. (human AR [2]; Table 1): 34.7 ± 2.7%

CCCCN1C(CCCc2ccccc2)=NOC1(C)Cc1ccccc1 (stereo not shown) [Example 59ab, 5-Benzyl-4-butyl-5-methyl-3-(3-phenyl-propyl)-4,5-dihydro-[1,2,4]oxadiazole]
inhibition at 13.4 µM (human AR [2]; Table 1): 39.1 ± 2.6%

COc1ccc(CC2=NOC(C)(Cc3ccccc3)N2CC(C)C)cc1 (single isomer, unassigned) [Example 65b, 5-Benzyl-4-isobutyl-3-(4-methoxy-benzyl)-5-methyl-4,5-dihydro-[1,2,4]oxadiazole]
Inhibition of [3H]-R1881 binding at 1.34 nM ± S.D. (human AR [2]; Table 1): 13.5 ± 1.6%

CCCCN1C(c2cccc3ccccc23)=NOC1(C)Cc1ccccc1 (stereo not shown) [Example 53ab, 5-Benzyl-4-butyl-5-methyl-3-napthalen-1-yl-4,5-dihydro-[1,2,4]oxadiazole]
inhibition at 13.4 µM (human AR [2]; Table 1): 29.8 ± 10.8%

CC1(Cc2ccccc2)CC(c2ccc(C#N)cc2)=NO1 (stereo not shown) [Example 8ab, 4-(5-Benzyl-5-methyl-4,5-dihydro-isoxazol-3-yl)-benzonitrile]
inhibition at 13.4 µM (human AR [2]; Table 1): 30.4 ± 2.9%

Source: patent US9278942B2, “Non-steroidal compounds as androgen receptor modulators” (FLX Discoveries Oy, priority 2011, dated 2016)
